Results: US20030095958A1, “Inhibitors of bace” (priority 2001, published 2003)

What follows are compounds tested against BACE (Homo sapiens, UniProt P56817) (assay: Ki Determination for the Inhibition of BACE (FS-1 peptide fluorescence cleavage assay)). Details: apparent Ki; 50 nM BACE, 10 μM FS-1 substrate, 0.1M sodium acetate pH 4.5.
Chain of BACE (P56817 46-501): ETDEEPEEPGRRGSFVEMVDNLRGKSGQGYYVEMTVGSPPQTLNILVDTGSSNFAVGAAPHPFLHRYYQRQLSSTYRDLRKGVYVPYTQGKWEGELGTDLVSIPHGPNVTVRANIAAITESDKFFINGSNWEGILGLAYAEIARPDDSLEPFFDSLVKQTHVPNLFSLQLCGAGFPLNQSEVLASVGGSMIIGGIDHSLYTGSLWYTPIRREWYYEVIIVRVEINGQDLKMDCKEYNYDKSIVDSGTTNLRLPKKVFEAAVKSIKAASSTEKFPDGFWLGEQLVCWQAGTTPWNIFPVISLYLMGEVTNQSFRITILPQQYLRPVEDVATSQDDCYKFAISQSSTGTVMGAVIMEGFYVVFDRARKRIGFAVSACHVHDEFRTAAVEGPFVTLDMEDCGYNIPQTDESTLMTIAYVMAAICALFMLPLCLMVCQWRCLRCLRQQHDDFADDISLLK
Format: biochemical
Procedure: Compounds were tested against BACE activity using the following modifications of the method described in J. Ermolieff et al. (2000) Biochemistry 39(51):16263.
All compound evaluations were performed in 0.1M sodium acetate (buffer), pH, 4.5, 10 μM substrate (FS-1 peptide as described in the reference above; this is commercially available), varying concentrations of the test compound or control (DMSO to yeild 2% vol/vol), and 50 nM BACE. The assay volume is 100 μL.
Two microliters of the test compound dissolved in DMSO are added to each well in a 96-well microtiter plate. Seventy eight microliters of BACE are mixed with buffer and added to each well then incubated at room temperature for 15 minutes. A stock solution of 50 μM FS-1 substrate was prepared by addition of an aliquot of FS-1 substrate which was dissolved in DMSO to the buffer and mixed well. The reaction is initiated by addition of 20 μL of the FS-1 mix to the remaining, preincubated assay components. The cleavage reaction of substrate to product is measured using a Molecular Devices fluorescence plate reader with the excitation and emission filter pairs of 355 nm and 495 nm, respectively. Apparent Ki values are determined by fitting the data to the integrated equation for competitive tight binding inhibition.
In the case of `Cc1cc(N2CCNCC2)c(NC(=O)c2cccc3ccccc23)cc1-c1ccc(Cl)c(Cl)c1` [Compound 138, Naphthalene-1-carboxylic acid (3′,4′-dichloro-6-methyl-4-piperazin-1-yl-biphenyl-3-yl)-amide], the Ki is reported as under 3 µM. `O=C(Nc1cc(Oc2cccc(Cl)c2)ccc1N1CCNCC1)c1cccc2ccccc12` [Compound 139, Naphthalene-1-carboxylic acid [5-(3-chloro-phenoxy)-2-piperazin-1-yl-phenyl]-amide] gave a Ki of 3 to 30 µM. Work on `Cc1ccccc1Oc1ccc(N2CCNCC2)c(NC(=O)c2cccc3ccccc23)c1` [Compound 140, Naphthalene-1-carboxylic acid (2-piperazin-1-yl-5-o-tolyloxy-phenyl)-amide] yielded a Ki of 3 to 30 µM. `Cc1cccc(Oc2ccc(N3CCNCC3)c(NC(=O)c3cccc4ccccc34)c2)c1` [Compound 141, Naphthalene-1-carboxylic acid (2-piperazin-1-yl-5-m-tolyloxy-phenyl)-amide] was tested, and the Ki was 3 to 30 µM. `Cc1ccc(Oc2ccc(N3CCNCC3)c(NC(=O)c3cccc4ccccc34)c2)cc1` [Compound 142, Naphthalene-1-carboxylic acid (2-piperazin-1-yl-5-p-tolyloxy-phenyl)-amide] was tested, and the Ki was 3 to 30 µM. `COc1ccc2c(C(=O)Nc3cc(C(F)(F)F)ccc3N3CCNCC3)cccc2c1` [Compound 143, 6-Methoxy-naphthalene-1-carboxylic acid (2-piperazin-1-yl-5-trifluoromethyl-phenyl)-amide] gave a Ki of over 30 µM. Compound `CC(C)NS(=O)(=O)c1ccc(-c2ccc(N3CCNCC3)c(NC(=O)c3cccc4ccccc34)c2)cc1` [Compound 144, Naphthalene-1-carboxylic acid (4′-isopropylsulfamoyl-4-piperazin-1-yl-biphenyl-3-yl)-amide] has a Ki of 3 to 30 µM. With `CCN(CC)S(=O)(=O)c1ccc(-c2ccc(N3CCNCC3)c(NC(=O)c3cccc4ccccc34)c2)cc1` [Compound 145, Naphthalene-1-carboxylic acid (4′-diethylsulfamoyl-4-piperazin-1-yl-biphenyl-3-yl)-amide] the Ki was 3 to 30 µM. `O=C(Nc1cc(-c2ccc(S(=O)(=O)NCc3ccccc3)cc2)ccc1N1CCNCC1)c1cccc2ccccc12` [Compound 146, Naphthalene-1-carboxylic acid (4′-benzylsulfamoyl-4-piperazin-1-yl-biphenyl-3-yl)-amide] gave a Ki of under 3 µM. In the case of `O=C(Nc1cc(-c2ccc(S(=O)(=O)NC3CCCCC3)cc2)ccc1N1CCNCC1)c1cccc2ccccc12` [Compound 147, Naphthalene-1-carboxylic acid (4′-cyclohexylsulfamoyl-4-piperazin-1-yl-biphenyl-3-yl)-amide], the Ki is reported as under 3 µM. Work on `O=C(Nc1cc(C(F)(F)F)cc(Cl)c1N1CCNCC1)c1cccc2ccccc12` [Compound 148, Naphthalene-1-carboxylic acid (3-chloro-2-piperazin-1-yl-5-trifluoromethyl-phenyl)-amide] yielded a Ki of over 30 µM. In the case of `O=C(Nc1cc(C(F)(F)F)ccc1N1CCNCC1)c1cccc2cccnc12` [Compound 149, Quinoline-8-carboxylic acid (2-piperazin-1-yl-5-trifluoromethyl-phenyl)-amide], the Ki is reported as 3 to 30 µM. In the case of `O=C(Nc1cc(C(F)(F)F)ccc1N1CCNCC1)Oc1cccc2ccccc12` [Compound 150, (2-Piperazin-1-yl-5-trifluoromethyl-phenyl)-carbamic acid naphthalen-1-yl ester], the Ki is reported as 3 to 30 µM. In the case of `O=C(Nc1cc(C(F)(F)F)ccc1N1CCNCC1)Oc1ccc2ccccc2c1` [Compound 151, (2-Piperazin-1-yl-5-trifluoromethyl-phenyl)-carbamic acid naphthalen-2-yl ester], the Ki is reported as 3 to 30 µM. With `O=C(Nc1cc(-c2ccoc2)ccc1N1CCNCC1)c1cccc2ccccc12` [Compound 152, Naphthalene-1-carboxylic acid (5-furan-3-yl-2-piperazin-1-yl-phenyl)-amide] the Ki was over 30 µM. Compound `O=C(Nc1cc(-c2ccsc2)ccc1N1CCNCC1)c1cccc2ccccc12` [Compound 153, Naphthalene-1-carboxylic acid (2-piperazin-1-yl-5-thiophen-3-yl-phenyl)-amide] has a Ki of 3 to 30 µM. For `Cc1cc(N2CCNCC2)c(NC(=O)c2cccc3ccccc23)cc1-c1ccoc1` [Compound 154, Naphthalene-1-carboxylic acid (5-furan-3-yl-4-methyl-2-piperazin-1-yl-phenyl)-amide], the Ki was over 30 µM. Compound `Cc1cc(N2CCNCC2)c(NC(=O)c2cccc3ccccc23)cc1-c1ccsc1` [Compound 155, Naphthalene-1-carboxylic acid (4-methyl-2-piperazin-1-yl-5-thiophen-3-yl-phenyl)-amide] has a Ki of 3 to 30 µM. For `O=C(Nc1ccc(OCc2ccccc2)cc1N1CCNCC1)c1cccc2ccccc12` [Compound 156, Naphthalene-1-carboxylic acid (4-benzyloxy-2-piperazin-1-yl-phenyl)-amide], the Ki was over 30 µM. For `O=C(Nc1cc(F)c(Br)cc1N1CCNCC1)c1cccc2ccccc12` [Compound 157, Naphthalene-1-carboxylic acid (4-bromo-5-fluoro-2-piperazin-1-yl-phenyl)-amide], the Ki was over 30 µM. Work on `O=C(Nc1cc(F)c(-c2ccccc2)cc1N1CCNCC1)c1cccc2ccccc12` [Compound 158, Naphthalene-1-carboxylic acid (2-fluoro-5-piperazin-1-yl-biphenyl-4-yl)-amide] yielded a Ki of 3 to 30 µM. `O=C(Nc1cc(F)c(-c2ccc(C(F)(F)F)cc2)cc1N1CCNCC1)c1cccc2ccccc12` [Compound 159, Naphthalene-1-carboxylic acid (2-fluoro-5-piperazin-1-yl-4′-trifluoromethyl-biphenyl-4-yl)-amide] gave a Ki of under 3 µM. `O=C(Nc1cc(F)c(-c2ccoc2)cc1N1CCNCC1)c1cccc2ccccc12` [Compound 160, Naphthalene-1-carboxylic acid (5-fluoro-4-furan-3-yl-2-piperazin-1-yl-phenyl)-amide] was tested, and the Ki was 3 to 30 µM. In the case of `O=C(Nc1cc(-c2ccc(C(F)(F)F)cc2F)ccc1N1CCNCC1)c1cccc2ccccc12` [Compound 161, Naphthalene-1-carboxylic acid (2′-fluoro-4-piperazin-1-yl-4′-trifluoromethyl-biphenyl-3-yl)-amide], the Ki is reported as 3 to 30 µM. Compound `O=C(Nc1cc(-c2cc(F)c(C(F)(F)F)cc2F)ccc1N1CCNCC1)c1cccc2ccccc12` [Compound 162, Naphthalene-1-carboxylic acid (2′,5′-difluoro-4-piperazin-1-yl-4′-trifluoromethyl-biphenyl-3-yl)-amide] has a Ki of under 3 µM. For `O=C(Nc1cc(-c2ccc(S(=O)(=O)NCc3ccccc3)c(F)c2)ccc1N1CCNCC1)c1cccc2ccccc12` [Compound 163, Naphthalene-1-carboxylic acid (4′-benzylsulfamoyl-3′-fluoro-4-piperazin-1-yl-biphenyl-3-yl)-amide], the Ki was under 3 µM. Work on `O=C(Nc1cc(-c2cc(F)c(S(=O)(=O)NCc3ccccc3)cc2F)ccc1N1CCNCC1)c1cccc2ccccc12` [Compound 164, Naphthalene-1-carboxylic acid (4′-benzylsulfamoyl-2′,5′-difluoro-4-piperazin-1-yl-biphenyl-3-yl)-amide] yielded a Ki of 3 to 30 µM. `c1ccc(-c2ccc(N3CCNCC3)c(NCc3ccc4ccccc4c3)c2)cc1` [Compound 165, Naphthalen-2-ylmethyl-(4-piperazin-1-yl-biphenyl-3-yl)-amine] showed a Ki of under 3 µM. Compound `FC(F)(F)c1ccc(-c2ccc(N3CCNCC3)c(NCc3ccc4ccccc4c3)c2)cc1` [Compound 166, Naphthalen-2-ylmethyl-(4-piperazin-1-yl-4′-trifluoromethyl-biphenyl-3-yl)-amine] has a Ki of under 3 µM. Work on `O=C(Nc1cc(C(F)(F)F)c(Cl)cc1N1CCNCC1)c1cccc2ccccc12` [Compound 167, Naphthalene-1-carboxylic acid (4-chloro-2-piperazin-1-yl-5-trifluoromethyl-phenyl)-amide] yielded a Ki of over 30 µM. `O=C(Nc1cc(C(F)(F)F)c(-c2ccc(Cl)c(Cl)c2)cc1N1CCNCC1)c1cccc2ccccc12` [Compound 168, Naphthalene-1-carboxylic acid (3′,4′-dichloro-5-piperazin-1-yl-2-trifluoromethyl-biphenyl-4-yl)-amide] showed a Ki of under 3 µM. With `O=C(Nc1cc(C(F)(F)F)c(-c2cc(Cl)ccc2Cl)cc1N1CCNCC1)c1cccc2ccccc12` [Compound 169, Naphthalene-1-carboxylic acid (2′,5′-dichloro-5-piperazin-1-yl-2-trifluoromethyl-biphenyl-4-yl)-amide] the Ki was under 3 µM. Work on `O=C(Nc1cc(C(F)(F)F)c(-c2ccc(C(F)(F)F)cc2)cc1N1CCNCC1)c1cccc2ccccc12` [Compound 170, Naphthalene-1-carboxylic acid (5-piperazin-1-yl-2,4′-bis-trifluoromethyl-biphenyl-4-yl)-amide] yielded a Ki of under 3 µM. For `O=S(=O)(Nc1cc(C(F)(F)F)ccc1N1CCNCC1)c1ccc(-c2ccc(C(F)(F)F)cc2)cc1` [Compound 171, 4′-Trifluoromethyl-biphenyl-4-sulfonic acid (2-piperazin-1-yl-5-trifluoromethyl-phenyl)-amide], the Ki was under 3 µM. With `O=S(=O)(Nc1cc(C(F)(F)F)ccc1N1CCNCC1)c1ccc(-c2ccccc2C(F)(F)F)cc1` [Compound 172, 2′-Trifluoromethyl-biphenyl-4-sulfonic acid (2-piperazin-1-yl-5-trifluoromethyl-phenyl)-amide] the Ki was under 3 µM. Compound `O=C(Nc1ccc(-c2ccc(Cl)c(Cl)c2)cc1N1CCNCC1)c1cccc2ccccc12` [Compound 173, Naphthalene-1-carboxylic acid (3′,4′-dichloro-3-piperazin-1-yl-biphenyl-4-yl)-amide] has a Ki of under 3 µM.
